Laboratory results taken from article PMC10065799, “High-throughput profiling of sequence recognition by tyrosine kinases and SH2 domains using bacterial peptide display” (eLife, 2023).

Tests used:
Test in all cases: pTyr-Var library bacterial peptide display kinase screen (enrichment scores)
EPHB1 kinase domain = type: biochemical, human; details: for Screen: sheet EPHB1, effect of the variant peptide relative to its reference peptide in the pTyr-Var library screen (enrichment scores); for Screen (variant relative to reference peptide, measured in the pTyr-Var library screen): sheet "EPHB1", variant seq vs reference seq, bacterial peptide display enrichment
Fer kinase domain = type: biochemical, mouse; details: sheet "Fer"
EPHB2 kinase domain = type: biochemical, human; details: sheet EPHB2
c-Abl kinase domain = biological target: T1, c-Abl kinase domain (Mus musculus, UniProt P00520); type: biochemical;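 also: log2 fold change in enrichment of variant over reference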
T1 sequence (P00520 242-493 limits assumed): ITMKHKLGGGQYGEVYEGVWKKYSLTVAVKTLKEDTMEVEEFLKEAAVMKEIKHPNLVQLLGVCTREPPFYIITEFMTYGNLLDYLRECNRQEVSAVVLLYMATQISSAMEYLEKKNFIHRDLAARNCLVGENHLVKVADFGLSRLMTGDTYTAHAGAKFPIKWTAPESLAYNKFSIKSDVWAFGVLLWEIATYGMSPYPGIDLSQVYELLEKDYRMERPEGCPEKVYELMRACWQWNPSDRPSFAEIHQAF

c-Src kinase domain = c-Src kinase domain (Homo sapiens, UniProt P12931); type: biochemical; details: sheet "Src";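 also: log2 fold change in enrichment of variant over reference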
[1] = value of the variant peptide against its reference peptide in the pTyr-Var library screen with Fer
[2] = effect of variant peptide relative to its reference peptide in the pTyr-Var library screen (enrichment scores)
[3] = fig5-data2, sheet "Abl", Screen for the variant/reference peptide pair, pTyr-Var library
[4] = variant peptide versus its reference peptide in the pTyr-Var library screen
[5] = effect of the variant peptide relative to its reference peptide in the pTyr-Var library screen
[6] = effect of the variant relative to its reference peptide in the pTyr-Var library screen
[7] = sheet "Abl", effect of variant peptide relative to its reference peptide in pTyr-Var library screen (enrichment)
[8] = variant peptide relative to its reference peptide, pTyr-Var library screen enrichment

Sequence QADIIYVNTQL [MERTK_Y872_V870I] has a Screen (EPHB1 kinase domain) of -0.9888 and a Screen (Fer kinase domain; [1]) of -0.9597.

LICRRYLVMQR [IL3RA_Y328_V323L] was tested, and the Screen (EPHB2 kinase domain; [2]) was 1.326 and the Screen (c-Abl kinase domain; [3]) was 0.743.

In the case of EEVPLYESATT [DCC_Y809_G805E], the Screen (EPHB2 kinase domain; [2]) is reported as -0.8416, the Screen (EPHB1 kinase domain) is reported as -0.9244 and the Screen (Fer kinase domain; [1]) is reported as -0.3858.

For QADVVYVNTQL [MERTK_Y872_I871V], the Screen (EPHB1 kinase domain) was -1.929 and the Screen (Fer kinase domain; [1]) was -1.343.

In the case of ANARMYGVLPW [PLP1_Y207_D203N], the Screen (c-Src kinase domain; [4]) is reported as -0.7799 and the Screen (EPHB2 kinase domain; [2]) is reported as -1.895.

With WAFNLYDINKF [KCNIP3_Y174_D179Y_YF] the Screen (c-Src kinase domain; [5]) was -0.1467, the Screen (EPHB2 kinase domain; [2]) was 0.891 and the Screen (EPHB1 kinase domain) was 0.7978. It also gave a Screen (Fer kinase domain; [1]) of 1.417.

In the case of QNAGDYFDLFG [PTPN11_Y62_T59A_YF], the Screen (c-Src kinase domain; [4]) is reported as -0.3977, the Screen (EPHB2 kinase domain; [2]) is reported as -0.3726 and the Screen (EPHB1 kinase domain) is reported as -0.1063.

LLILEYAKFGS [RET_Y806_V804L_YF] was tested, and the Screen (EPHB2 kinase domain; [2]) was -0.9388 and the Screen (EPHB1 kinase domain) was -0.7851.

For TNEFEYDELIV [TGM1_Y136_D132N_YF], the Screen (EPHB2 kinase domain; [6]) was -2.123.

HLEKKYVHRDS [CSF1R_Y708_R710H] showed a Screen (c-Src kinase domain; [5]) of -3.671, a Screen (EPHB2 kinase domain; [2]) of -2.097 and a Screen (EPHB1 kinase domain) of -1.586. For the same sequence, the Screen (Fer kinase domain; [1]) was -0.7741.

Sequence LRSKQYLRNPP [SHC1_Y315_F312S] has a Screen (EPHB2 kinase domain; [2]) of -1.743 and a Screen (c-Abl kinase domain; [7]) of -0.3171.

DCVRMYELVHR [GLE1_Y135_G130D] gave a Screen (EPHB2 kinase domain; [2]) of -0.0869, a Screen (EPHB1 kinase domain) of -0.05786 and a Screen (Fer kinase domain; [1]) of 0.7012.

For HNLDFYKQTTN [FGFR3_Y648_K650Q_YF], the Screen (c-Src kinase domain; [5]) was -2.522, the Screen (EPHB2 kinase domain; [2]) was -1.53 and the Screen (EPHB1 kinase domain) was -1.421. It also gave a Screen (Fer kinase domain; [1]) of -2.104.

Work on HDRGNYVQLNM [RECQL4_Y353_R355Q] yielded a Screen (EPHB2 kinase domain; [2]) of 1.444 and a Screen (EPHB1 kinase domain) of 1.895.

Sequence AVISVYDLVAF [PSEN1_Y256_V261F] has a Screen (c-Src kinase domain; [4]) of 0.3764, a Screen (EPHB2 kinase domain; [2]) of 0.9519 and a Screen (EPHB1 kinase domain) of 0.6578. The Screen (Fer kinase domain; [1]) was 0.2851.

EAEALYQTTFQ [KRT73_Y325_K328T] gave a Screen (c-Src kinase domain; [5]) of 1.585, a Screen (EPHB2 kinase domain; [2]) of 1.238 and a Screen (Fer kinase domain; [1]) of 3.654.

FFSSEYHCVGG [CTSC_Y345_Y347C_YF] showed a Screen (c-Src kinase domain; [5]) of -0.4888, a Screen (EPHB2 kinase domain; [2]) of -0.8292 and a Screen (EPHB1 kinase domain) of -0.4883. For the same sequence, the Screen (c-Abl kinase domain; [3]) was 0.5786.

RLGVTYEQALA [MAP2_Y996_G991R] showed a Screen (EPHB2 kinase domain; [2]) of 1.544.

Work on LRSELYSLIAR [PHIP_Y16_F17S] yielded a Screen (c-Src kinase domain; [4]) of 0.6047, a Screen (EPHB1 kinase domain) of 1.727 and a Screen (Fer kinase domain; [1]) of 2.641.

MKVPLYETPAG [PGM5_Y358_V357L] gave a Screen (c-Src kinase domain; [4]) of -1.534, a Screen (EPHB2 kinase domain; [2]) of 0.6636 and a Screen (EPHB1 kinase domain) of 0.8032. It also gave a Screen (Fer kinase domain; [1]) of 0.5188.

With DLNATYCTIQG [U2SURP_Y634_R635C] the Screen (c-Src kinase domain; [4]) was 2.996, the Screen (EPHB2 kinase domain; [6]) was 3.025 and the “Screen (variant relative to reference peptide, measured in the pTyr-Var library screen)” value (EPHB1 kinase domain) was 3.639.

With KSIQLYDTPFE [SHB_Y297_G293S_YF] the Screen (EPHB2 kinase domain; [2]) was 0.4609, the “Screen (variant relative to reference peptide, measured in the pTyr-Var library screen)” value (EPHB1 kinase domain) was 0.5631 and the Screen (Fer kinase domain; [8]) was 0.2984. For the same sequence, the Screen (c-Abl kinase domain; [7]) was -1.035.

Work on SNNFIYTTLGV [FAM83B_Y639_K640T_YF] yielded a Screen (c-Src kinase domain; [5]) of 3.577, a Screen (EPHB1 kinase domain) of 2.305 and a Screen (Fer kinase domain; [1]) of 2.656.

In the case of LSIQCYLRASD [HMGCS2_Y262_L266S], the Screen (EPHB2 kinase domain; [2]) is reported as 0.8903, the Screen (EPHB1 kinase domain) is reported as 1.205 and the Screen (Fer kinase domain; [1]) is reported as 1.097.

In the case of EDEGLYTVRVP [MYOM3_Y343_M344T], the Screen (c-Src kinase domain; [4]) is reported as -0.00676, the Screen (EPHB2 kinase domain; [2]) is reported as -1.314 and the Screen (EPHB1 kinase domain) is reported as -1.202. It also gave a Screen (Fer kinase domain; [1]) of -0.4796.

HICTAYKLVLA [DHCR24_Y190_E191K] was tested, and the Screen (c-Src kinase domain; [5]) was -1.13, the Screen (EPHB2 kinase domain; [2]) was 0.4857 and the Screen (Fer kinase domain; [1]) was -2.51.

RGESFYQDTMN [RARS_Y338_R341T] showed a Screen (EPHB2 kinase domain; [2]) of 1.971, a Screen (EPHB1 kinase domain) of 2.46 and a Screen (Fer kinase domain; [8]) of 1.596.

Work on QELRRYLESGV [MICA_Y194_K196E] yielded a Screen (EPHB2 kinase domain; [2]) of 0.3004.

With QRALLYEDTLF [UNC13D_Y56_A59T_YF] the Screen (c-Src kinase domain; [4]) was 0.3849, the Screen (EPHB2 kinase domain; [6]) was 0.5663 and the “Screen (variant relative to reference peptide, measured in the pTyr-Var library screen)” value (EPHB1 kinase domain) was 0.5027. The Screen (Fer kinase domain; [8]) was 0.1557.

In the case of IGEGTYGVLFK [CDK2_Y15_V18L_YF], the Screen (c-Src kinase domain; [5]) is reported as 0.1027 and the Screen (EPHB2 kinase domain; [2]) is reported as -0.7589.

QNWELYSEGLG [CNKSR1_Y665_R662W] was tested, and the Screen (c-Src kinase domain; [5]) was 2.202, the Screen (EPHB2 kinase domain; [2]) was 3.538 and the Screen (EPHB1 kinase domain) was 3.643.

HQKKPYCHTHN [NRAP_Y53_A56T] was tested, and the Screen (EPHB1 kinase domain) was 0.5433 and the Screen (Fer kinase domain; [1]) was 0.08502.

Sequence INPIIYAFVGG [CCR5_Y297_E302G] has a Screen (c-Src kinase domain; [5]) of 0.06385, a Screen (EPHB2 kinase domain; [2]) of 0.0201 and a Screen (EPHB1 kinase domain) of 0.07603. For the same sequence, the Screen (Fer kinase domain; [1]) was -0.02742.

For LLRFLYFFVCS [SLC34A2_Y109_G106R], the Screen (c-Src kinase domain; [4]) was -1.793 and the Screen (EPHB2 kinase domain; [2]) was -1.518.

For LQIPMYEVQWK [KIT_Y553_K550I], the Screen (c-Src kinase domain; [5]) was 1.435, the Screen (EPHB2 kinase domain; [2]) was 4.801 and the Screen (EPHB1 kinase domain) was 3.846. For the same sequence, the Screen (Fer kinase domain; [1]) was 1.505.

In the case of RRIHSYRSHLW [VHL_Y112_G114S], the Screen (c-Src kinase domain; [4]) is reported as -3.054, the Screen (EPHB2 kinase domain; [6]) is reported as -0.1154 and the “Screen (variant relative to reference peptide, measured in the pTyr-Var library screen)” value (EPHB1 kinase domain) is reported as -1.453. For the same sequence, the Screen (c-Abl kinase domain; [7]) was -2.663.

GEHSIYSTVNN [CD55_Y266_C267S] gave a Screen (c-Src kinase domain; [5]) of 0.6713, a Screen (EPHB2 kinase domain; [2]) of 1.232 and a Screen (EPHB1 kinase domain) of 0.557. The Screen (Fer kinase domain; [1]) was 1.521.
